One experiment addresses SARS-CoV-2 Papain-Like Protease (PLpro) (Severe acute respiratory syndrome coronavirus 2 (2019-nCoV) (SARS-CoV-2), UniProt P0DTD1). In words: biochemical. The conditions noted are these: PLpro enzymatic fluorescence assay; class symbols; read-out: PLpro IC50.
For `C=Cc1cc(C2(NC(=O)c3cc(OC[C@H](C)N)ccc3C)CC2)c2cccnc2c1` [Compound 735, (S)-5-(2-Aminopropoxy)-2-methyl-N-(1-(7-vinylquinolin-5-yl)cyclopropyl)benzamide], the IC50 (in general, the point on the concentration scale where inhibition reaches its midpoint) was less than 100 nM.
In the case of `Cc1ccc(OC[C@@H]2CCN2C)cc1C(=O)NC1(c2cc(-c3ncn4ccccc34)cc3ncccc23)CC1` [Compound 736, (S)—N-(1-(7-(Imidazo[1,5-a]pyridin-1-yl)quinolin-5-yl)cyclopropyl)-2-methyl-5-((1-methylazetidin-2-yl)methoxy)benzamide], the IC50 was less than 100 nM.
On the same count and under the same terms, the result for `CNc1cc(C)c(C(=O)NC2(c3cc(OC)cc4ncccc34)CC2)cc1OC[C@@H]1CCN1C` [Compound 737, (S)-N-(1-(7-Methoxyquinolin-5-yl)cyclopropyl)-2-methyl-4-(methylamino)-5-((1-methylazetidin-2-yl)methoxy)benzamide] reads less than 100 nM; that for `Cc1ccc(OC[C@@H]2CCN2C)cc1C(=O)NC1(c2cc(C#N)cc3ncccc23)CC1` [Compound 738, (S)-N-(1-(7-cyanoquinolin-5-yl)cyclopropyl)-2-methyl-5-((1-methylazetidin-2-yl)methoxy)benzamide], less than 100 nM; that for `Cc1ccc(OC[C@@H]2CCN2C)cc1C(=O)NC1(c2cc(OS(=O)(=O)C(F)(F)F)cc3ncccc23)CC1` [Compound 739, (S)-5-(1-(2-Methyl-5-((1-methylazetidin-2-yl)methoxy)benzamido)cyclopropyl)quinolin-7-yl trifluoromethanesulfonate], less than 100 nM.
On the same count and under the same terms, the result for `Cc1ccc(OC[C@@H]2CCN2C)cc1C(=O)NC1(c2cc(N3CCOCC3)cc3ncccc23)CC1` [Compound 740, (S)-2-Methyl-5-((1-methylazetidin-2-yl)methoxy)-N-(1-(7-morpholinoquinolin-5-yl)cyclopropyl)benzamide] reads less than 100 nM.
On the same count and under the same terms, to `C=Cc1cc(C2(NC(=O)c3cc(OC[C@@H]4CCN4C)c(NC)cc3C)CC2)c2cccnc2c1` [Compound 745, (S)-2-Methyl-4-(methylamino)-5-((1-methylazetidin-2-yl)methoxy)-N-(1-(7-vinylquinolin-5-yl)cyclopropyl)benzamide] belongs less than 100 nM; to `C=Cc1cc(C2(NC(=O)c3cc(OC[C@@H]4CCN4C)c(NC(C)=O)cc3C)CC2)c2cccnc2c1` [Compound 746, (S)-4-Acetamido-2-methyl-5-((1-methylazetidin-2-yl)methoxy)-N-(1-(7-vinylquinolin-5-yl)cyclopropyl)benzamide], less than 100 nM; to `Cc1ccc(OC[C@@H]2CCN2C)cc1C(=O)NC1(c2cc(NCc3ccccc3)cc3ncccc23)CC1` [Compound 747, (S)—N-(1-(7-(Benzylamino)quinolin-5-yl)cyclopropyl)-2-methyl-5-((1-methylazetidin-2-yl)methoxy)benzamide], less than 100 nM.
Take `COc1cc(C2(NC(=O)c3cc(OC[C@@H]4CCN4C)c(O)cc3C)CC2)c2cccnc2c1` [Compound 750, (S)-4-Hydroxy-N-(1-(7-methoxyquinolin-5-yl)cyclopropyl)-2-methyl-5-((1-methylazetidin-2-yl)methoxy)benzamide]: the IC50 was less than 100 nM.
Take `Cc1ccc(OC[C@@H]2CCN2C)cc1C(=O)NC1(c2cc(-c3ccc(CN[C@H]4CC[C@@H](O)C4)s3)cc3ncccc23)CC1` [Compound 751, N-(1-(7-(5-((((1S,3R)-3-Hydroxycyclopentyl)amino)methyl)thiophen-2-yl)quinolin-5-yl)cyclopropyl)-2-methyl-5-(((S)-1-methylazetidin-2-yl)methoxy)benzamide]: the IC50 is less than 100 nM.
`Cc1ccc(OC[C@@H]2CCN2C)cc1C(=O)NC1(c2cc(-c3ccc(CNC4CCCC4)s3)cc3ncccc23)CC1` [Compound 752, (S)—N-(1-(7-(5-((Cyclopentylamino)methyl)thiophen-2-yl)quinolin-5-yl)cyclopropyl)-2-methyl-5-((1-methylazetidin-2-yl)methoxy)benzamide]: the IC50 was less than 100 nM.
The same measure, in the same setting: to `Cc1ccc(OC[C@@H]2CCN2C)cc1C(=O)NC1(c2cc(-c3ccc(CO)s3)cc3ncccc23)CC1` [Compound 753, (S)-N-(1-(7-(5-(Hydroxymethyl)thiophen-2-yl)quinolin-5-yl)cyclopropyl)-2-methyl-5-((1-methylazetidin-2-yl)methoxy)benzamide] belongs less than 100 nM; to `C=Cc1cc(C2(NC(=O)c3cc(OC[C@@H]4CCN4C)c(O)cc3C)CC2)c2cccnc2c1` [Compound 755, (S)-4-Hydroxy-2-methyl-5-((1-methylazetidin-2-yl)methoxy)-N-(1-(7-vinylquinolin-5-yl)cyclopropyl)benzamide], less than 100 nM.
On to `Cc1ccc(OC[C@@H]2CCN2C)cc1C(=O)NC1(c2cc(-c3ccc(CN(C)C)s3)cc3ncccc23)CC1` [Compound 756, (S)—N-(1-(7-(5-((Dimethylamino)methyl)thiophen-2-yl)quinolin-5-yl)cyclopropyl)-2-methyl-5-((1-methylazetidin-2-yl)methoxy)benzamide], for which the IC50 is less than 100 nM.
Same read-out and setting: the result for `C=Cc1cc(C2(NC(=O)c3cc(O[C@H](C)[C@@H]4CCN4C)ccc3C)CC2)c2cccnc2c1` [Compound 758, 2-Methyl-5-((R)-1-((S)-1-methylazetidin-2-yl)ethoxy)-N-(1-(7-vinylquinolin-5-yl)cyclopropyl)benzamide] reads less than 100 nM; that for `Cc1ccc(OC[C@@H]2CCN2C)cc1C(=O)NC1(c2cc(NCC(F)(F)F)cc3ncccc23)CC1` [Compound 759, (S)-2-Methyl-5-((1-methylazetidin-2-yl)methoxy)-N-(1-(7-((2,2,2-trifluoroethyl)amino)quinolin-5-yl)cyclopropyl)benzamide], less than 100 nM.
Take `C=Cc1cc(C2(NC(=O)c3cc(OC[C@@H]4CCN4C)c(NS(C)(=O)=O)cc3C)CC2)c2cccnc2c1` [Compound 760, (S)-2-Methyl-5-((1-methylazetidin-2-yl)methoxy)-4-(methylsulfonamido)-N-(1-(7-vinylquinolin-5-yl)cyclopropyl)benzamide]: the IC50 was less than 100 nM.
On to `COc1cc(C2(NC(=O)c3cc(OC[C@@H]4CCN4C)ccc3C)CC2)c2ncccc2c1` [Compound 761, (S)-N-(1-(6-Methoxyquinolin-8-yl)cyclopropyl)-2-methyl-5-((1-methylazetidin-2-yl)methoxy)benzamide], for which the IC50 lay within 100 to 1000 nM.
Consider `Cc1ccc(OC[C@@H]2CCN2C)cc1C(=O)NC1(c2cc(-c3ccc(C(C)O)s3)cc3ncccc23)CC1` (stereo partly drawn) [Compound 762, N-(1-(7-(5-(1-Hydroxyethyl)thiophen-2-yl)quinolin-5-yl)cyclopropyl)-2-methyl-5-(((S)-1-methylazetidin-2-yl)methoxy)benzamide], for which the IC50 was less than 100 nM.
As for `CNc1cc(C2(NC(=O)c3cc(OC[C@@H]4CCN4C)ccc3C)CC2)c2cccnc2c1` [Compound 763, (S)-2-Methyl-N-(1-(7-(methylamino)quinolin-5-yl)cyclopropyl)-5-((1-methylazetidin-2-yl)methoxy)benzamide], the IC50 was less than 100 nM.
On the same count and under the same terms, the result for `Cc1ncc(-c2cc(C3(NC(=O)c4cc(OC[C@@H]5CCN5C)ccc4C)CC3)c3cccnc3c2)s1` [Compound 764, (S)-2-Methyl-5-((1-methylazetidin-2-yl)methoxy)-N-(1-(7-(2-methylthiazol-5-yl)quinolin-5-yl)cyclopropyl)benzamide] reads less than 100 nM.
Still for that read-out and setting: to `Cc1ccc(OC[C@@H]2CCN2C)cc1C(=O)NC1(c2cc(-c3ccc(C(=O)N4CCCC4)s3)cc3ncccc23)CC1` [Compound 767, (S)-2-Methyl-5-((1-methylazetidin-2-yl)methoxy)-N-(1-(7-(5-(pyrrolidine-1-carbonyl)thiophen-2-yl)quinolin-5-yl)cyclopropyl)benzamide] belongs greater than 5000 nM; to `CCCN(CCC)c1cc(C2(NC(=O)c3cc(OC[C@@H]4CCN4C)ccc3C)CC2)c2cccnc2c1` [Compound 771, (S)—N-(1-(7-(Dipropylamino)quinolin-5-yl)cyclopropyl)-2-methyl-5-((1-methylazetidin-2-yl)methoxy)benzamide], less than 100 nM.
As for `COc1cc(C2(NC(=O)c3cc(OC[C@H]4CC5(CC5)CN4C)ccc3C)CC2)c2cccnc2c1` [Compound 774, (R)—N-(1-(7-Methoxyquinolin-5-yl)cyclopropyl)-2-methyl-5-((5-methyl-5-azaspiro[2.4]heptan-6-yl)methoxy)benzamide], the IC50 is less than 100 nM.
Regarding `COc1cc(C2(NC(=O)c3cc(OC[C@@H]4CC[C@@H]5CN(C(=O)OC(C)(C)C)CCN54)ccc3C)CC2)c2cccnc2c1` [Compound 775], the IC50 is less than 100 nM.
In the case of `COc1cc(C2(NC(=O)c3cc(O[C@H]4CC[C@@H]5CN(C(=O)OC(C)(C)C)CCN5C4)ccc3C)CC2)c2cccnc2c1` [Compound 776], the IC50 was less than 100 nM.

The same experiment, now with this note: SARS-CoV-2 PLpro enzymatic fluorescence assay; read-out: PLpro IC50.
Turning to `CCCNc1cc(C2(NC(=O)c3cc(OC[C@@H]4CCN4C)ccc3C)CC2)c2cccnc2c1` [Compound 743, (S)-2-Methyl-5-((1-methylazetidin-2-yl)methoxy)-N-(1-(7-(propylamino)quinolin-5-yl)cyclopropyl)benzamide], the IC50 was less than 100 nM.
The same measure, in the same setting: the result for `CC(=O)Nc1cc(C2(NC(=O)c3cc(OC[C@@H]4CCN4C)ccc3C)CC2)c2cccnc2c1` [Compound 744, (S)-N-(1-(7-Acetamidoquinolin-5-yl)cyclopropyl)-2-methyl-5-((1-methylazetidin-2-yl)methoxy)benzamide] reads less than 100 nM; that for `C=Cc1cc(C2(NC(=O)c3cc(OCC45CCCN4CCC5)ccc3C)CC2)c2cccnc2c1` [Compound 748, 2-Methyl-5-((tetrahydro-1H-pyrrolizin-7a (5H)-yl)methoxy)-N-(1-(7-vinylquinolin-5-yl)cyclopropyl)benzamide], less than 100 nM; that for `C=Cc1cc(C2(NC(=O)c3cc(OC45CCCN(CCC4)C5)ccc3C)CC2)c2cccnc2c1` [Compound 749, 5-(1-Azabicyclo[3.3.1]nonan-5-yloxy)-2-methyl-N-(1-(7-vinylquinolin-5-yl)cyclopropyl)benzamide], less than 100 nM.
